Measurements published in patent publication US10029986B2, “Alkynyl pyridine-substituted amide compound and pesticide” (NISSAN CHEMICAL INDUSTRIES, LTD., priority 2014, dated 2018).

system: Southern root-knot nematode (Meloidogyne incognita); assay: Test on the preventive effect against Southern root-knot nematode (garden balsam seedlings); assay type: in vivo; conditions: 504 h, test solution B 100 ppm, 1 ml per seedling to base of garden balsam seedlings, 3 weeks in greenhouse, read-out: efficacy (root knot damage degree relative to non-treated plot)
Procedure: Compounds of the present invention were dissolved in dimethyl sulfoxide to prepare 1 wt % solutions. Then, distilled water was added to dilute the solutions to the prescribed concentration (100 ppm), and the obtained solutions were used in the following the Test Examples 9 to 12. 1 ml per seedling of test solution B of the compounds of the present invention was treated to the bases of garden balsam seedlings (about 2 weeks after budding) planted in a cell tray of which each cell was filled with 10 g of soil. 1 hour after the application, 1 ml per cell of water containing Southern root-knot nematode (Meloidogyne incognita) 2 L larvae (100 larvae of 2 L/1 ml) was applied to the base. The tray was placed in a greenhouse for 3 weeks, and the degree of root knot on the root was determined in accordance with the following damage index and the damage degree to calculate the efficacy (%) relative to the non-treated plot in accordance with the following formula. • 0: No knot formation was observed. • 1: Knot formations were observed on parts of the root system. • 2: Knot formations were observed on the entire root system. • 3: Large knot formations were observed. • 4: Large knot formations were observed on the entire root system. [Damage degree]=[Σ(damage index×number of each damaged indexed seedling)/(4×number of seedlings investigated)]×100 Efficacy (%)=[1−(damage degree in treated plot/damage degree in non-treated plot)]×100

**Q.** For CC(C)(C)C#Cc1cnc(CCNC(=O)c2ccccc2C(F)(F)F)c(Cl)c1 [1-003, N-[2-[3-chloro-5-(3,3-dimethyl-1-butynyl)pyridin-2-yl]ethyl]-2-(trifluoromethyl)benzamide], which pest or weed control at 100 µg/mL is on record?
**A.** ≥ 50%

**Q.** For O=C(NCC(F)(F)c1ncc(C#CC2CC2)cc1Cl)c1ccccc1C(F)(F)F [1-005], which pest or weed control at 100 µg/mL is on record?
**A.** ≥ 50%

**Q.** Which pest or weed control at 100 µg/mL does the source give for CC(CNC(=O)c1ccccc1C(F)(F)F)c1ncc(C#CC2CC2)cc1Cl (stereo not shown) [1-007, N-[2-[3-chloro-5-(cyclopropylethynyl)pyridin-2-yl]propyl]-2-(trifluoromethyl)benzamide] here?
**A.** ≥ 50%

**Q.** O=C(NCC(c1ncc(C#CC2CC2)cc1Cl)C1CC1)c1ccccc1C(F)(F)F (stereo not shown) [1-009] was tested. Which pest or weed control at 100 µg/mL did it give?
**A.** ≥ 50%

**Q.** How did the pest or weed control at 100 µg/mL turn out when C=C(CNC(=O)c1ccccc1C(F)(F)F)c1ncc(C#CC)cc1Cl [1-012, N-[2-[3-chloro-5-(1-propynyl)pyridin-2-yl]-2-propenyl]-2-(trifluoromethyl)benzamide] was run?
**A.** ≥ 50%

**Q.** COC(c1ncc(C#CC2CC2)cc1Cl)C(C)NC(=O)c1ccccc1C(F)(F)F (stereo not shown) [1-024] was tested. Which pest or weed control at 100 µg/mL did it give?
**A.** ≥ 50%

**Q.** For COC(c1ncc(C#CC(C)(C)C)cc1Cl)C(C)NC(=O)c1ccccc1C(F)(F)F (stereo not shown) [1-025], which pest or weed control at 100 µg/mL is on record?
**A.** ≥ 50%

**Q.** How did the pest or weed control at 100 µg/mL turn out when O=C(NCCc1ncc(C#CC2CC2)cc1Cl)c1cccnc1C(F)F [3-001, N-[2-[3-chloro-5-(cyclopropylethynyl)pyridin-2-yl]ethyl]-2-(difluoromethyl)nicotinamide] was run?
**A.** ≥ 50%

**Q.** With CC(C)(C)C#Cc1cnc(CCNC(=O)c2cccnc2C(F)F)c(Cl)c1 [3-002] as the compound, how does the pest or weed control at 100 µg/mL read?
**A.** ≥ 50%

**Q.** How did the pest or weed control at 100 µg/mL turn out when O=C(NCC(F)(F)c1ncc(C#CC2CC2)cc1Cl)c1cccnc1C(F)F [3-003, N-[2-[3-chloro-5-(cyclopropylethynyl)pyridin-2-yl]-2,2-difluoroethyl]-2-(difluoromethyl)nicotinamide] was run?
**A.** ≥ 50%

**Q.** With CC(CNC(=O)c1cccnc1Cl)c1ncc(C#CC2CC2)cc1Cl (stereo not shown) [3-005] as the compound, how does the pest or weed control at 100 µg/mL read?
**A.** ≥ 50%

**Q.** How did the pest or weed control at 100 µg/mL turn out when CC(CNC(=O)c1cccnc1C(F)F)c1ncc(C#CC2CC2)cc1Cl (stereo not shown) [3-006] was run?
**A.** ≥ 50%

**Q.** O=C(NCC(c1ncc(C#CC2CC2)cc1Cl)C1CC1)c1cccnc1C(F)F (stereo not shown) [3-008] was tested. Which pest or weed control at 100 µg/mL did it give?
**A.** ≥ 50%

**Q.** With CSC(CNC(=O)c1cccnc1C(F)F)c1ncc(C#CC2CC2)cc1Cl (stereo not shown) [3-020] as the compound, how does the pest or weed control at 100 µg/mL read?
**A.** ≥ 50%

**Q.** COC(c1ncc(C#CC2CC2)cc1Cl)C(C)NC(=O)c1cccnc1C(F)F (stereo not shown) [3-021] was tested. Which pest or weed control at 100 µg/mL did it give?
**A.** ≥ 50%

**Q.** Cn1cc(C(=O)NCCc2ncc(C#CC3CC3)cc2Cl)c(C(F)F)n1 [8-001] was tested. Which pest or weed control at 100 µg/mL did it give?
**A.** ≥ 50%

**Q.** Which pest or weed control at 100 µg/mL does the source give for Cn1cc(C(=O)NCCc2ncc(C#CC(C)(C)C)cc2Cl)c(C(F)F)n1 [8-002] here?
**A.** ≥ 50%

**Q.** For CC(CNC(=O)c1cn(C)nc1C(F)F)c1ncc(C#CC2CC2)cc1Cl (stereo not shown) [8-007], which pest or weed control at 100 µg/mL is on record?
**A.** ≥ 50%

**Q.** For Cn1cc(C(=O)NCC(c2ncc(C#CC3CC3)cc2Cl)C2CC2)c(C(F)F)n1 (stereo not shown) [8-009], which pest or weed control at 100 µg/mL is on record?
**A.** ≥ 50%

**Q.** For COC(CNC(=O)c1cn(C)nc1C(F)F)c1ncc(C#CC2CC2)cc1Cl (stereo not shown) [8-019], which pest or weed control at 100 µg/mL is on record?
**A.** ≥ 50%

**Q.** With COC(c1ncc(C#CC2CC2)cc1Cl)C(C)NC(=O)c1cn(C)nc1C(F)F (stereo not shown) [8-028, N-[2-[3-chloro-5-(cyclopropylethynyl)pyridin-2-yl]-2-methoxy-1-methylethyl]-3-difluoromethyl-1-methyl-1H-pyrazole-4-carboxamide] as the compound, how does the pest or weed control at 100 µg/mL read?
**A.** ≥ 50%

**Q.** How did the pest or weed control at 100 µg/mL turn out when COC(c1ncc(C#CC2CC2)cc1Cl)C(C)NC(=O)c1sc(C)nc1C(F)F (stereo not shown) [9-006a] was run?
**A.** ≥ 50%
